Assay results taken from patent US9422289B2, “Use of pteridine derivatives for the treatment of increased intracranial pressure, secondary ischemia, and disorders associated with an increased level of cytotoxic reactive oxygen species” (VASOPHARM GMBH, priority 2003, dated 2016).

How the values were obtained:
5-HT2B (h) = target: T1, 5-HT2B (h) (Homo sapiens, UniProt P41595); format: binding; conditions: 10 µM
T1 construct: Cerep (assay catalogue, edition 2002) 808-2bh

5-HT2A (h) = target: T2, 5-HT2A (h) (Homo sapiens, UniProt P28223); assay: Radioligand binding, Cerep 808-2h; conditions: 10 µM
T2 construct: Cerep (assay catalogue, edition 2002) 808-2h

Vitamin D3 (h) = target: T3, Vitamin D3 (h) (Homo sapiens, UniProt P11473); format: binding; conditions: 10 µM
T3 construct: Cerep (assay catalogue, edition 2002) 848-h

DA uptake = DA uptake (Rattus norvegicus, UniProt P23977); format: cell-based; conditions: 10 µM
GABA (non-selective) = format: binding; conditions: 10 µM
[1] = tested on: Ca^2+ channel (L, DHP site); format: binding; conditions: 10 µM
β1 (h) = β1 (h) (Homo sapiens, UniProt P08588); format: binding; conditions: 10 µM
Phosphodiesterase V (h) = target: T4, Phosphodiesterase V (h) (Homo sapiens, UniProt O76074); format: biochemical; conditions: 10 µM
T4 construct: Cerep (assay catalogue, edition 2002) 752-e

K^+ATP channel = K^+ATP channel (Rattus norvegicus, UniProt Q09429); assay: Radioligand binding, Cerep 863-1; conditions: 10 µM
[2] = tested on: isolated rat middle cerebral arteries (MCA); assay: Contractile action in isolated rat middle cerebral arteries
[3] = tested on: Ca^2+ channel (L, verapamil site); assay: Radioligand binding, Cerep 861-L3; conditions: 10 µM
NMDA = assay: Radioligand binding, Cerep 895-3; conditions: 10 µM
GABAB = GABAB (Rattus norvegicus, UniProt Q9Z0U4); format: binding; conditions: 10 µM
α1 (non-selective) = assay: Radioligand binding, Cerep 802-1a; conditions: 10 µM
Acetylcholinesterase (h) = Acetylcholinesterase (h) (Homo sapiens, UniProt P22303); format: biochemical; conditions: 10 µM
K^+V channel = assay: Radioligand binding, Cerep 863-2; conditions: 10 µM
M3 (h) = M3 (h) (Homo sapiens, UniProt P20309); assay: Radioligand binding, Cerep 806-3h; conditions: 10 µM
GABAA = assay: Radioligand binding, Cerep 804-1; conditions: 10 µM
[4] = tested on: β-adrenoceptor -G protein coupling; format: cell-based; conditions: 10 µM
Na^+/K^+ ATPase (pump) = assay: Cell biology assay, Cerep 734; format: cell-based; conditions: 10 µM
SK^+Ca channel = assay: Radioligand binding, Cerep 863-3; conditions: 10 µM
β2 (h) = β2 (h) (Homo sapiens, UniProt P07550); format: binding; conditions: 10 µM
AT2 (h) = AT2 (h) (Homo sapiens, UniProt P50052); format: binding; conditions: 10 µM
D2 (h) = D2 (h) (Homo sapiens, UniProt P14416); format: binding; conditions: 10 µM
Kainate = assay: Radioligand binding, Cerep 895-2; conditions: 10 µM
Estrogen (ER) = assay: Radioligand binding, Cerep 813; conditions: 10 µM
[5] = tested on: L-type Ca^2+ channel (stimulated); assay: Cell biology assay, Cerep 740-1; format: cell-based; conditions: 10 µM
H2 = H2 (Cavia porcellus, UniProt P47747); format: binding; conditions: 10 µM
AT1 (h) = AT1 (h) (Homo sapiens, UniProt P30556); assay: Radioligand binding, Cerep 821-1h; conditions: 10 µM
[6] = tested on: Protein kinase A (stimulated); assay: Cell biology assay, Cerep 706-2; format: cell-based; conditions: 10 µM
ETA (h) = ETA (h) (Homo sapiens, UniProt P25101); format: binding; conditions: 10 µM
α2 (non-selective) = assay: Radioligand binding, Cerep 802-1b; conditions: 10 µM
[7] = tested on: β-adrenoceptor - G protein coupling; format: cell-based
5-HT1D = assay: Radioligand binding, Cerep 808-1d; conditions: 10 µM
5-HT1B = 5-HT1B (Rattus norvegicus, UniProt P28564); format: binding; conditions: 10 µM
Ca^2+-ATPase (pump) = assay: Cell biology assay, Cerep 735; format: cell-based; conditions: 10 µM
M2 (h) = M2 (h) (Homo sapiens, UniProt P08172); format: binding; conditions: 10 µM
ETB (h) = ETB (h) (Homo sapiens, UniProt P24530); assay: Radioligand binding, Cerep 825-2h; conditions: 10 µM
[8] = tested on: Cell proliferation (h) (EGF-stimulated A-431); assay: cells; format: cell-based, human; conditions: 10 µM
PAF = PAF (Oryctolagus cuniculus, UniProt G1TEI7); assay: Radioligand binding, Cerep 830; conditions: 10 µM
[9] = tested on: Na^+ channel (h) (stimulated); assay: Cell biology assay, Cerep 739-1; format: cell-based, human; conditions: 10 µM
AMPA = assay: Radioligand binding, Cerep 895-1; conditions: 10 µM
[10] = tested on: Cell proliferation (PDGF-stimulated Balb/c 3T3); assay: Cell biology assay, Cerep 791-3; format: cell-based; conditions: 10 µM
[11] = tested on: Ca^2+ channel (L, diltiazem site); format: binding; conditions: 10 µM
PDGF = assay: Radioligand binding, Cerep 881; conditions: 10 µM
M1 (h) = M1 (h) (Homo sapiens, UniProt P11229); format: binding; conditions: 10 µM
[12] = target: T5, NOS constitutive (h) (endothelial) (Homo sapiens, UniProt P29474); format: biochemical; conditions: 10 µM
T5 construct: Cerep (assay catalogue, edition 2002) 766-c

ATPase (Na^+/K^+) = assay: Cell biology assay, Cerep 760; format: biochemical; conditions: 10 µM
D1 (h) = D1 (h) (Homo sapiens, UniProt P21728); format: binding; conditions: 10 µM
NE uptake = NE uptake (Rattus norvegicus, UniProt Q63380); format: cell-based; conditions: 10 µM
[13] = target: Phosphodiesterase III (h) (Homo sapiens, UniProt Q14432); assay: Cell biology assay, Cerep 752-ch; format: biochemical; conditions: 10 µM
[14] = tested on: isolated rat basilar arteries (BA); assay: Contractile action in isolated rat basilar arteries
H1 (central) = H1 (central) (Cavia porcellus, UniProt P31389); format: binding; conditions: 10 µM
IP3 = assay: Radioligand binding, Cerep 861-5; conditions: 10 µM
[15] = target: T6, NOS inducible (whole cells/spectrophoto.) (Mus musculus, UniProt P29477); assay: Cell biology assay, Cerep 766-i1; format: cell-based; conditions: 10 µM
T6 construct: Cerep (assay catalogue, edition 2002) 766-i1

EGF (h) = EGF (h) (Homo sapiens, UniProt P00533); assay: Radioligand binding, Cerep […]; conditions: 10 µM
5-HT uptake = 5-HT uptake (Rattus norvegicus, UniProt P31652); format: cell-based; conditions: 10 µM

Chain of GABAB (O88871 41-940): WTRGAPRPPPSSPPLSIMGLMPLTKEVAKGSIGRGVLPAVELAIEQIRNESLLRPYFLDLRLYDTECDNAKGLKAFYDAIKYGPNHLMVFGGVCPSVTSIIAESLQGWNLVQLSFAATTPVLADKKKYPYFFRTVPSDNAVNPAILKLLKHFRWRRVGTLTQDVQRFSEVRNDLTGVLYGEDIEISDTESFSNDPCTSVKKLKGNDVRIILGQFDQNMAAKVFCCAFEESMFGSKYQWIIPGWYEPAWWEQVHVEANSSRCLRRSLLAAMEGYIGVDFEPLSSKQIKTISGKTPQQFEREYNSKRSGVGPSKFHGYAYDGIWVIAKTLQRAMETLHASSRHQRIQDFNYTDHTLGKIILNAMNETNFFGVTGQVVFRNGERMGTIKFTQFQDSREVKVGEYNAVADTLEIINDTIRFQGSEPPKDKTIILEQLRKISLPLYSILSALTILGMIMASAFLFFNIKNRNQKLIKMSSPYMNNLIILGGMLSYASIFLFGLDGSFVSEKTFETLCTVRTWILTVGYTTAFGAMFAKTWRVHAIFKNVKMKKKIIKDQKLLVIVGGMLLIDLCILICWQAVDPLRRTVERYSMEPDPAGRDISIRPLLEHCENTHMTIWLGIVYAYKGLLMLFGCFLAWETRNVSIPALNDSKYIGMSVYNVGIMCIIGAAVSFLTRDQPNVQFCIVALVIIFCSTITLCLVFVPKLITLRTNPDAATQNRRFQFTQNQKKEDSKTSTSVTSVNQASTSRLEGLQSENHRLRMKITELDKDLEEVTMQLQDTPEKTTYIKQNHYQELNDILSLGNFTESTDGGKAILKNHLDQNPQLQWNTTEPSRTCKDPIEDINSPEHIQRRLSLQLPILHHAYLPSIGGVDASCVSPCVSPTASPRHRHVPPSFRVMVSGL
Chain of GABAB (Q9Z0U4 20-960): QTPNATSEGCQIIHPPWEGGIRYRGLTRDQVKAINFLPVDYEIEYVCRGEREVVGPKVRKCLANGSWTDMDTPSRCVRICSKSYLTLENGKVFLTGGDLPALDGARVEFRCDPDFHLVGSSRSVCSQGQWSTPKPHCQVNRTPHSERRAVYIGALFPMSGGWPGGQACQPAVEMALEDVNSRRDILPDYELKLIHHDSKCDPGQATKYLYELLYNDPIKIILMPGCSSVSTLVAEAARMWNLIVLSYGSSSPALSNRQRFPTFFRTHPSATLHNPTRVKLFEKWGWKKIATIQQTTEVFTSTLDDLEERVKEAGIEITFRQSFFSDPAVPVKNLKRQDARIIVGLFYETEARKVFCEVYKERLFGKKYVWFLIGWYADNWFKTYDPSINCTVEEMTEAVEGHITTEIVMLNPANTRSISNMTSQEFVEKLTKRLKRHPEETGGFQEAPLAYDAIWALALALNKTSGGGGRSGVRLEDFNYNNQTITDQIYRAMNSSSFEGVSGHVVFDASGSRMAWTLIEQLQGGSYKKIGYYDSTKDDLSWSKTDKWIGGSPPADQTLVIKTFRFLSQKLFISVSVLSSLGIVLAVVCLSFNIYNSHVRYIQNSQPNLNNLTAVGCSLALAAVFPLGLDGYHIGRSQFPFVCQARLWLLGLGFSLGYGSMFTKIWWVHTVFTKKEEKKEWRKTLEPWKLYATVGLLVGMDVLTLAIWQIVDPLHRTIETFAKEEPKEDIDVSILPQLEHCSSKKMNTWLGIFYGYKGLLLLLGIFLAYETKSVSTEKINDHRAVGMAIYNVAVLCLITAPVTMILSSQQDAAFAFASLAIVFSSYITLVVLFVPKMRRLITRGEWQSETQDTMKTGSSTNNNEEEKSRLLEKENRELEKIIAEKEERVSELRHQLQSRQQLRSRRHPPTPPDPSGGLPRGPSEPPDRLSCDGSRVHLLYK
Chain of β2 (h) (P07550 whole entry): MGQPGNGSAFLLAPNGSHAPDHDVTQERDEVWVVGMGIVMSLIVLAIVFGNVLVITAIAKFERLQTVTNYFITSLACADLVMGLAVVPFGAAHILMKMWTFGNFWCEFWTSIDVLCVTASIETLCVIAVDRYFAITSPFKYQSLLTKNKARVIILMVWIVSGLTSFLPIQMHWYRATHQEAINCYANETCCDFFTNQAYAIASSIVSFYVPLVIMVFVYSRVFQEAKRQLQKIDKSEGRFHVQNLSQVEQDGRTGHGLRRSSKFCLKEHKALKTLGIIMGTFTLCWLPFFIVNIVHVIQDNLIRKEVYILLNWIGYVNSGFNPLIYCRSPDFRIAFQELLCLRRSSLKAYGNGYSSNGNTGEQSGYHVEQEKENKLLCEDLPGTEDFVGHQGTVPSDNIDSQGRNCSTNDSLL
Chain of EGF (h) (P00533 25-1210): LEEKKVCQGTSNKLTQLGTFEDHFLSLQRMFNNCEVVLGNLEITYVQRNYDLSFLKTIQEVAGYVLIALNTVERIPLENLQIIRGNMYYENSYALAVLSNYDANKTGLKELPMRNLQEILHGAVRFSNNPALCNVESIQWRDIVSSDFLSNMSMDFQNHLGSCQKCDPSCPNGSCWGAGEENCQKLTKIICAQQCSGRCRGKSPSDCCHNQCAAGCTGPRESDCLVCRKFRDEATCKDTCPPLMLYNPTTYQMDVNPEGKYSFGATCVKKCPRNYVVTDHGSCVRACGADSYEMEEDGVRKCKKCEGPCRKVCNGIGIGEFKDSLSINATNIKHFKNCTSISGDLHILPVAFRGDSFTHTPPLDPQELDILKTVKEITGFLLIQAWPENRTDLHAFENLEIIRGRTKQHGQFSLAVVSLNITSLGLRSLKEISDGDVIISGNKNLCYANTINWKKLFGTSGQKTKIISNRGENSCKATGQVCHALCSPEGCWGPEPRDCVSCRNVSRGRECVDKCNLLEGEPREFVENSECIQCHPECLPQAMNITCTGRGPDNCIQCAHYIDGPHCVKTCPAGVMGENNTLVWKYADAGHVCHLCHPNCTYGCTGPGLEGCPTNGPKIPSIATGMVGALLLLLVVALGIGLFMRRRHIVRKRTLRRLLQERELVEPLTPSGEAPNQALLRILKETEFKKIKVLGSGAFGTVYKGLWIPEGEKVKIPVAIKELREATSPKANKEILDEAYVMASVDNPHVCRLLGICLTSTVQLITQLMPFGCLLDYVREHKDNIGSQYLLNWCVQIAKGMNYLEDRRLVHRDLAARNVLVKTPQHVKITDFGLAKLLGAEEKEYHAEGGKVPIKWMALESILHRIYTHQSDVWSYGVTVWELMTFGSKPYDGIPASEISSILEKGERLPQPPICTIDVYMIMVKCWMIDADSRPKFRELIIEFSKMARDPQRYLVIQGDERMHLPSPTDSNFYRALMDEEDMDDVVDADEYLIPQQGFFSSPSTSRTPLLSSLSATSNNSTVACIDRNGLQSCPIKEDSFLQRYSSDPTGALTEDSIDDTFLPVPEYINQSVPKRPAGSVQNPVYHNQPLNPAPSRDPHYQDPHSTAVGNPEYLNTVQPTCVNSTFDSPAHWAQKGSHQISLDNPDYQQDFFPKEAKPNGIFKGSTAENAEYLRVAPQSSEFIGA
Chain of β1 (h) (P08588 whole entry): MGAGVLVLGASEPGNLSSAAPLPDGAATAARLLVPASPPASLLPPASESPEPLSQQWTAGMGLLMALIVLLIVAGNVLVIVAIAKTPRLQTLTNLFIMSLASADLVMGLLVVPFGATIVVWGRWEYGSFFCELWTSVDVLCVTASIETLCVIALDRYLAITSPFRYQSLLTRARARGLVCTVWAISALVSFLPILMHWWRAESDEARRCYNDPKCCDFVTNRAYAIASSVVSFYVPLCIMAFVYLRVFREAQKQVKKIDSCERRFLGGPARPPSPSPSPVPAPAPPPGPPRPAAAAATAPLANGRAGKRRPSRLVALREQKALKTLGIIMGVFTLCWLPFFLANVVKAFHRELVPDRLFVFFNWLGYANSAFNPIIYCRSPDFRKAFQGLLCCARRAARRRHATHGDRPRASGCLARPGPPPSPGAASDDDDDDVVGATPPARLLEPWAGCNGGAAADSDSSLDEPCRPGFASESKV
Chain of D2 (h) (P14416 whole entry): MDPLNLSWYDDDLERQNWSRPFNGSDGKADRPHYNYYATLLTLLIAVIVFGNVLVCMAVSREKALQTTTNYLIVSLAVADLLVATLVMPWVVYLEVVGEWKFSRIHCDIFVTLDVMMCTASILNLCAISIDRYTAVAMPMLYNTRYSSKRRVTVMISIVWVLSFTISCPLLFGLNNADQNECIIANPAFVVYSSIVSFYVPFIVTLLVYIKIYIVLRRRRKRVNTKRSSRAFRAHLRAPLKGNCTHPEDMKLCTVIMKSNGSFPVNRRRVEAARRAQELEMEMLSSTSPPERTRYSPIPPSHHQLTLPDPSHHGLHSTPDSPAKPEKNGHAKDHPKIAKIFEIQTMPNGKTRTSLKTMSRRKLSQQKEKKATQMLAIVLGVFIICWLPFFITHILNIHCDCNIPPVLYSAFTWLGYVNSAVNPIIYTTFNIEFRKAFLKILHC
Chain of M2 (h) (P08172 whole entry): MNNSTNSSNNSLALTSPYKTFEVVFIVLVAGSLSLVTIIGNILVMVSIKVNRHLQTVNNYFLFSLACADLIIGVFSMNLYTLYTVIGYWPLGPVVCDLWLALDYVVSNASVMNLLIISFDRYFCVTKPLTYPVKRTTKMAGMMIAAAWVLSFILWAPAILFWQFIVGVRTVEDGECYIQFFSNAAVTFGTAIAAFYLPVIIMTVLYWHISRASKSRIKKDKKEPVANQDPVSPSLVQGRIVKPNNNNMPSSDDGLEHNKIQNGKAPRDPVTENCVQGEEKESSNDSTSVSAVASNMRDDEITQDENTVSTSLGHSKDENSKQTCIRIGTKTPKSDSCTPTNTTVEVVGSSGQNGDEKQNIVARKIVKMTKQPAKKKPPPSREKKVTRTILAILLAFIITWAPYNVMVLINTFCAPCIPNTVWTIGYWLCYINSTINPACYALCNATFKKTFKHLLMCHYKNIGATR

SMILES: CC(O)C(O)C1CNc2nc(N)nc(N)c2N1 [H4-aminobiopterin, 2,4-diamino-5,6,7,8-tetrahydro-6-(L-erythro-1,2-dihydroxypropyl)-pteridine]
- percent inhibition of control specific binding (5-HT2B (h)): — (key: The symbol — indicates an inhibition of less than 10%.)
- percent inhibition of control specific binding (5-HT2A (h)): — (key: The symbol — indicates an inhibition of less than 10%.)
- percent inhibition of control specific binding (Vitamin D3 (h)): — (key: The symbol — indicates an inhibition of less than 10%.)
- percent inhibition of control activity (DA uptake): — (key: The symbol — indicates an inhibition of less than 10%.)
- percent inhibition of control specific binding (GABA (non-selective)): — (key: The symbol — indicates an inhibition of less than 10%.)
- percent inhibition of control specific binding [1]: — (key: The symbol — indicates an inhibition of less than 10%.)
- percent inhibition of control specific binding (β1 (h)): — (key: The symbol — indicates an inhibition of less than 10%.)
- percent inhibition of control activity (Phosphodiesterase V (h)): — (key: The symbol — indicates an inhibition of less than 10%.)
- percent inhibition of control specific binding (K^+ATP channel): — (key: The symbol — indicates an inhibition of less than 10%.)
- contraction relative to contraction caused by 124 mM K^+-Krebs solution [2]: clear concentration dependent contraction
- percent inhibition of control specific binding [3]: — (key: The symbol — indicates an inhibition of less than 10%.)
- percent inhibition of control specific binding (NMDA): — (key: The symbol — indicates an inhibition of less than 10%.)
- percent inhibition of control specific binding (GABAB): — (key: The symbol — indicates an inhibition of less than 10%.)
- percent inhibition of control specific binding (α1 (non-selective)): — (key: The symbol — indicates an inhibition of less than 10%.)
- percent inhibition of control activity (Acetylcholinesterase (h)): — (key: The symbol — indicates an inhibition of less than 10%.)
- percent inhibition of control specific binding (K^+V channel): — (key: The symbol — indicates an inhibition of less than 10%.)
- percent inhibition of control specific binding (M3 (h)): 10%
- percent inhibition of control specific binding (GABAA): — (key: The symbol — indicates an inhibition of less than 10%.)
- percent of inhibition of control activity [4]: 31%
- percent inhibition of control activity (Na^+/K^+ ATPase (pump)): — (key: The symbol — indicates an inhibition of less than 10%.)
- percent inhibition of control specific binding (SK^+Ca channel): — (key: The symbol — indicates an inhibition of less than 10%.)
- percent inhibition of control specific binding (β2 (h)): — (key: The symbol — indicates an inhibition of less than 10%.)
- percent inhibition of control specific binding (AT2 (h)): 16%
- percent inhibition of control specific binding (D2 (h)): — (key: The symbol — indicates an inhibition of less than 10%.)
- percent inhibition of control specific binding (Kainate): — (key: The symbol — indicates an inhibition of less than 10%.)
- percent inhibition of control specific binding (Estrogen (ER)): — (key: The symbol — indicates an inhibition of less than 10%.)
- percent inhibition of control activity [5]: — (key: The symbol — indicates an inhibition of less than 10%.)
- percent inhibition of control specific binding (H2): — (key: The symbol — indicates an inhibition of less than 10%.)
- percent inhibition of control specific binding (AT1 (h)): — (key: The symbol — indicates an inhibition of less than 10%.)
- percent inhibition of control activity [6]: — (key: The symbol — indicates an inhibition of less than 10%.)
- percent inhibition of control specific binding (ETA (h)): — (key: The symbol — indicates an inhibition of less than 10%.)
- percent inhibition of control specific binding (α2 (non-selective)): — (key: The symbol — indicates an inhibition of less than 10%.)
- stimulation of control activity [7]: 11
- percent inhibition of control specific binding (5-HT1D): — (key: The symbol — indicates an inhibition of less than 10%.)
- percent inhibition of control specific binding (5-HT1B): — (key: The symbol — indicates an inhibition of less than 10%.)
- percent inhibition of control activity (Ca^2+-ATPase (pump)): — (key: The symbol — indicates an inhibition of less than 10%.)
- percent inhibition of control specific binding (M2 (h)): — (key: The symbol — indicates an inhibition of less than 10%.)
- percent inhibition of control specific binding (ETB (h)): — (key: The symbol — indicates an inhibition of less than 10%.)
- percent inhibition of control activity [8]: 23%
- percent inhibition of control specific binding (PAF): — (key: The symbol — indicates an inhibition of less than 10%.)
- percent inhibition of control activity [9]: 12%
- percent inhibition of control specific binding (AMPA): — (key: The symbol — indicates an inhibition of less than 10%.)
- percent inhibition of control activity [10]: — (key: The symbol — indicates an inhibition of less than 10%.)
- percent inhibition of control specific binding [11]: — (key: The symbol — indicates an inhibition of less than 10%.)
- percent inhibition of control specific binding (PDGF): — (key: The symbol — indicates an inhibition of less than 10%.)
- percent inhibition of control specific binding (M1 (h)): — (key: The symbol — indicates an inhibition of less than 10%.)
- percent inhibition of control activity [12]: 76%
- percent inhibition of control activity (ATPase (Na^+/K^+)): — (key: The symbol — indicates an inhibition of less than 10%.)
- percent inhibition of control specific binding (D1 (h)): — (key: The symbol — indicates an inhibition of less than 10%.)
- percent inhibition of control activity (NE uptake): — (key: The symbol — indicates an inhibition of less than 10%.)
- percent inhibition of control activity [13]: — (key: The symbol — indicates an inhibition of less than 10%.)
- contraction relative to contraction caused by 124 mM K^+-Krebs solution [14]: clear concentration dependent contraction
- percent inhibition of control specific binding (H1 (central)): — (key: The symbol — indicates an inhibition of less than 10%.)
- percent inhibition of control specific binding (IP3): — (key: The symbol — indicates an inhibition of less than 10%.)
- percent inhibition of control activity [15]: — (key: The symbol — indicates an inhibition of less than 10%.)
- percent inhibition of control specific binding (EGF (h)): 10%
- percent inhibition of control activity (5-HT uptake): — (key: The symbol — indicates an inhibition of less than 10%.)
